Assay results: PubChem BioAssay AID256 (DTP/NCI, 2004)
Several values for one entry are separate records, joined by “and”; a condition that tells them apart may be missing. Equal entries are not always repeated. Inconclusive results and toxic doses are left out. The calls were made as follows: active = survival T/C of 150% or more; inactive = T/C below 125% in these data. Residues, ends and D or L forms follow the SMILES beside them.

System: CD2F1 mice, L1210 leukemia ip, survival T/C
Assay: NCI In Vivo Anticancer Drug Screen. Data for tumor model L1210 Leukemia (intraperitoneal) in CD2F1 (CDF1) mice
Conditions: higher = longer survival
Method in brief: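 Each value reflects a quotient of treated over vehicle control outcomes in mice with a transplanted tumor.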

[1] = endpoint: mean survival time, dose: 25.0 mg/kg/injection, schedule: Q01DX009 (ip), vehicle: saline
[2] = endpoint: mean survival time, dose: 50.0 mg/kg/injection, schedule: Q01DX009 (ip), vehicle: saline

Measured: T/C

O=C(O)CC(=O)O.[NH-]C1CCCCC1[NH-].[Pt+2] (stereo unspecified)
inactive: endpoint: mean survival time, dose: 1.25 mg/kg/injection, schedule: Q01DX009 (ip), vehicle: saline sonified 110 % of control | endpoint: mean survival time, dose: 2.5 mg/kg/injection, schedule: Q01DX009 (ip), vehicle: saline sonified 119 % of control | endpoint: mean survival time, dose: 10.0 mg/kg/injection, schedule: Q01DX001 (ip), vehicle: suspension in saline 124 % of control | endpoint: mean survival time, dose: 10.0 mg/kg/injection, schedule: Q01DX009 (oral), vehicle: saline 98 % of control | endpoint: mean survival time, dose: 20.0 mg/kg/injection, schedule: Q01DX001 (oral), vehicle: saline 98 % of control | endpoint: mean survival time, dose: 20.0 mg/kg/injection, schedule: Q01DX009 (oral), vehicle: saline 109 % of control | endpoint: mean survival time, dose: 40.0 mg/kg/injection, schedule: Q01DX001 (oral), vehicle: saline 98 % of control | endpoint: mean survival time, dose: 40.0 mg/kg/injection, schedule: Q01DX009 (oral), vehicle: saline 100 % of control | endpoint: mean survival time, dose: 80.0 mg/kg/injection, schedule: Q01DX001 (oral), vehicle: saline 100 % of control | endpoint: mean survival time, dose: 160.0 mg/kg/injection, schedule: Q01DX001 (oral), vehicle: saline 100 % of control | endpoint: mean survival time, dose: 320.0 mg/kg/injection, schedule: Q01DX001 (oral), vehicle: saline 100 % of control | endpoint: mean survival time, dose: 320.0 mg/kg/injection, schedule: Q01DX009 (oral), vehicle: saline 120 % of control | endpoint: median survival time, dose: 4.0 mg/kg/injection, schedule: Q01DX009 (ip), vehicle: dextrose 110 % of control

O=C1OC(c2ccccc2)c2ccccc21 (stereo unspecified)
inactive: endpoint: mean survival time, dose: 100.0 mg/kg/injection, schedule: Q01DX009 (ip), vehicle: saline with Tween-80 95 % of control | endpoint: mean survival time, dose: 200.0 mg/kg/injection, schedule: Q01DX009 (ip), vehicle: saline with Tween-80 100 % of control | endpoint: mean survival time, dose: 400.0 mg/kg/injection, schedule: Q01DX009 (ip), vehicle: saline with Tween-80 92 % of control

CC(=O)OCC1OC(n2ccc(-n3cncn3)nc2=O)CC1N=[N+]=[N-] (stereo unspecified)
inactive: endpoint: median survival time, dose: 12.5 mg/kg/injection, schedule: Q01DX005 (ip), vehicle: saline with Tween-80 101 % of control | endpoint: median survival time, dose: 25.0 mg/kg/injection, schedule: Q01DX005 (ip), vehicle: saline with Tween-80 104 % of control | endpoint: median survival time, dose: 50.0 mg/kg/injection, schedule: Q01DX005 (ip), vehicle: saline with Tween-80 98 % of control | endpoint: median survival time, dose: 100.0 mg/kg/injection, schedule: Q01DX005 (ip), vehicle: saline with Tween-80 94 % of control | endpoint: median survival time, dose: 200.0 mg/kg/injection, schedule: Q01DX005 (ip), vehicle: saline with Tween-80 93 % of control

NC(N)=NCCCC(N)C(=O)NC(CCC(=O)O)C(=O)O (stereo not drawn) (H-Arg-Glu-OH; configuration not given here)
inactive: [1] 91 % of control | [2] 94 % of control | endpoint: mean survival time, dose: 100.0 mg/kg/injection, schedule: Q01DX009 (ip), vehicle: saline 89 % of control | endpoint: mean survival time, dose: 200.0 mg/kg/injection, schedule: Q01DX009 (ip), vehicle: saline 89 % of control | endpoint: mean survival time, dose: 400.0 mg/kg/injection, schedule: Q01DX009 (ip), vehicle: saline 93 % of control

C#CC(O)CCC (stereo unspecified)
inactive: endpoint: mean survival time, dose: 100.0 mg/kg/injection, schedule: Q01DX001 (ip), vehicle: saline 97 % of control | endpoint: mean survival time, dose: 200.0 mg/kg/injection, schedule: Q01DX001 (ip), vehicle: saline 97 % of control

FC(F)(F)/C([S-])=C(/[S-])C(F)(F)F.[Fe].[c-]1[c-][c-][cH-][c-]1
inactive: endpoint: mean survival time, dose: 75.0 mg/kg/injection, schedule: Q01DX001 (ip), vehicle: other 105 % of control | endpoint: mean survival time, dose: 150.0 mg/kg/injection, schedule: Q01DX001 (ip), vehicle: other 100 % of control

CCN(CC)CCCC(C)N (stereo unspecified)
inactive: endpoint: mean survival time, dose: 50.0 mg/kg/injection, schedule: Q04DX003 (ip), vehicle: saline 101 % of control

CC([NH-])C(=O)O.CC([NH-])C(=O)O.CC([NH-])C(=O)O.[Co+3] (stereo unspecified)
inactive: endpoint: mean survival time, dose: 6.25 mg/kg/injection, schedule: Q01DX009 (ip), vehicle: saline 98 % of control | endpoint: mean survival time, dose: 12.5 mg/kg/injection, schedule: Q01DX009 (ip), vehicle: saline 112 % of control | [1] 107 % of control | [2] 124 % of control

ClC1C(Cl)(Cl)C1(Cl)Cl
inactive: endpoint: mean survival time, dose: 37.5 mg/kg/injection, schedule: Q01DX001 (ip), vehicle: saline 100 % of control | endpoint: mean survival time, dose: 75.0 mg/kg/injection, schedule: Q01DX001 (ip), vehicle: saline 102 % of control | endpoint: mean survival time, dose: 150.0 mg/kg/injection, schedule: Q01DX001 (ip), vehicle: saline 95 % of control

COc1cccc2c1C(=O)c1c(O)c3c(c(O)c1C2=O)CC(O)(C(C)=O)CC3OC1CC(N)C(O)C(C)O1 (stereo unspecified)
inactive: endpoint: mean survival time, dose: 0.25 mg/kg/injection, schedule: Q01DX001 (ip), vehicle: saline 112 % of control | endpoint: mean survival time, dose: 0.5 mg/kg/injection, schedule: Q01DX001 (ip), vehicle: saline 109 % of control | endpoint: mean survival time, dose: 0.63 mg/kg/injection, schedule: Q01DX009 (ip), vehicle: water 105 % of control | endpoint: mean survival time, dose: 1.0 mg/kg/injection, schedule: Q01DX001 (ip), vehicle: saline 115 % of control | endpoint: mean survival time, dose: 1.25 mg/kg/injection, schedule: Q01DX009 (ip), vehicle: water 108 % of control | endpoint: mean survival time, dose: 2.0 mg/kg/injection, schedule: Q01DX001 (ip), vehicle: saline 121 % of control | endpoint: mean survival time, dose: 2.5 mg/kg/injection, schedule: Q01DX009 (ip), vehicle: water 115 % of control and 105 % of control | endpoint: mean survival time, dose: 5.0 mg/kg/injection, schedule: Q01DX009 (ip), vehicle: water 105 % of control | endpoint: mean survival time, dose: 10.0 mg/kg/injection, schedule: Q01DX009 (ip), vehicle: water 117 % of control | endpoint: mean survival time, dose: 20.0 mg/kg/injection, schedule: Q01DX009 (ip), vehicle: water 117 % of control and 105 % of control | endpoint: mean survival time, dose: 40.0 mg/kg/injection, schedule: Q01DX009 (ip), vehicle: water 117 % of control | endpoint: mean survival time, dose: 80.0 mg/kg/injection, schedule: Q01DX009 (ip), vehicle: water 105 % of control

C=C1C(=O)OC2C1C(OC(=O)/C(=C/C)COC(C)=O)CC1(CO1)C1C(OC(=O)/C(=C/C)CO)C=C(C)C21 (stereo unspecified)
inactive: endpoint: mean survival time, dose: 100.0 mg/kg/injection, schedule: Q01DX001 (ip), vehicle: saline with Tween-80 88 % of control | endpoint: mean survival time, dose: 400.0 mg/kg/injection, schedule: Q01DX001 (ip), vehicle: saline with Tween-80 93 % of control

O=C(O)CSc1nc(-c2ccccc2)c(-c2ccccc2)n1-c1ccccn1
inactive: endpoint: mean survival time, dose: 12.5 mg/kg/injection, schedule: Q01DX009 (ip), vehicle: water 96 % of control and 97 % of control | endpoint: mean survival time, dose: 25.0 mg/kg/injection, schedule: Q01DX009 (ip), vehicle: water 91 % of control and 100 % of control | endpoint: mean survival time, dose: 50.0 mg/kg/injection, schedule: Q01DX009 (ip), vehicle: water 96 % of control and 102 % of control | endpoint: mean survival time, dose: 100.0 mg/kg/injection, schedule: Q01DX009 (ip), vehicle: water 100 % of control and 102 % of control

C=CN1C(=O)NC2(CCCCC2)C1=O
inactive: endpoint: mean survival time, dose: 25.0 mg/kg/injection, schedule: Q01DX009 (ip), vehicle: saline with Tween-80 96 % of control | endpoint: mean survival time, dose: 25.0 mg/kg/injection, schedule: Q04DX003 (ip), vehicle: saline with Tween-80 92 % of control | endpoint: mean survival time, dose: 50.0 mg/kg/injection, schedule: Q01DX009 (ip), vehicle: saline with Tween-80 96 % of control | endpoint: mean survival time, dose: 50.0 mg/kg/injection, schedule: Q04DX003 (ip), vehicle: saline with Tween-80 97 % of control | endpoint: mean survival time, dose: 100.0 mg/kg/injection, schedule: Q04DX003 (ip), vehicle: saline with Tween-80 95 % of control
